{"source": "patent US11352399B2", "about": "“Peptide for toll-like receptor (TLR) inhibition and pharmaceutical composition comprising same” (GENESEN CO., LTD., priority 2017, dated 2022)", "key": {"[1]": {"test_system": "mBMDM cells (Poly(I:C)-induced)", "assay": "Poly(I:C)-induced IFN-β generation in mBMDM cells", "assay_type": "cell-based, mouse"}, "[2]": {"test_system": "TLR4 signaling pathways", "assay": "Western blotting of NF-κB and MAPK in LPS-treated hPBMC cells", "assay_type": "cell-based, human", "conditions": "LPS together with TIP1", "procedure": "In order to perform Western blotting, a pre-protein extraction solution (M-PER, Thermo Fisher Scientific Inc.) was mixed with a protease and phosphatase inhibitor mixture, and was added to RAW 264.7 cell or hPBMC cell pellets. The pellets were cooled for 10 minutes, and then the lysates were centrifuged at 16000×g for 10 minutes. Then, NE-PER nuclear and cytoplasmic extraction reagents (Thermo Fisher Scientific Inc.) were used to extract cytoplasmic and nuclear proteins, respectively, and a BCA kit (Sigma-Alderich Co. LLC) was used to measure concentrations of the proteins. Subsequently, the same amounts of proteins were developed on SDS-polyacrylamide gels, and electrophoresis was performed using the Mini-PROTEAN Tetra Cell two-dimensional electrophoresis system (Bio-Rad Laboratories, Hercules, Calif., USA). The membrane was immunoblotted with primary antibodies by gentle shaking overnight at a temperature of 4° C. […] Then, after thorough shaking with PBST, the membrane was incubated with anti-mouse/-rabbit HRP-conjugated secondary antibodies (Thermo Fisher Scientific Inc.) for 2 hours; and the proteins were detected with SuperSignal West Pico ECL solution (Thermo Fisher Scientific Inc.) and were visualized with the Fuji LAS-3000 system (Fujifilm, Tokyo, Japan). […]"}, "[3]": {"target": "T1, TLR9 (Mus musculus, UniProt Q9EQU3)", "T1 construct": "host or cells: RAW 264.7", "T1 sequence (Q9EQU3 26-1032)": "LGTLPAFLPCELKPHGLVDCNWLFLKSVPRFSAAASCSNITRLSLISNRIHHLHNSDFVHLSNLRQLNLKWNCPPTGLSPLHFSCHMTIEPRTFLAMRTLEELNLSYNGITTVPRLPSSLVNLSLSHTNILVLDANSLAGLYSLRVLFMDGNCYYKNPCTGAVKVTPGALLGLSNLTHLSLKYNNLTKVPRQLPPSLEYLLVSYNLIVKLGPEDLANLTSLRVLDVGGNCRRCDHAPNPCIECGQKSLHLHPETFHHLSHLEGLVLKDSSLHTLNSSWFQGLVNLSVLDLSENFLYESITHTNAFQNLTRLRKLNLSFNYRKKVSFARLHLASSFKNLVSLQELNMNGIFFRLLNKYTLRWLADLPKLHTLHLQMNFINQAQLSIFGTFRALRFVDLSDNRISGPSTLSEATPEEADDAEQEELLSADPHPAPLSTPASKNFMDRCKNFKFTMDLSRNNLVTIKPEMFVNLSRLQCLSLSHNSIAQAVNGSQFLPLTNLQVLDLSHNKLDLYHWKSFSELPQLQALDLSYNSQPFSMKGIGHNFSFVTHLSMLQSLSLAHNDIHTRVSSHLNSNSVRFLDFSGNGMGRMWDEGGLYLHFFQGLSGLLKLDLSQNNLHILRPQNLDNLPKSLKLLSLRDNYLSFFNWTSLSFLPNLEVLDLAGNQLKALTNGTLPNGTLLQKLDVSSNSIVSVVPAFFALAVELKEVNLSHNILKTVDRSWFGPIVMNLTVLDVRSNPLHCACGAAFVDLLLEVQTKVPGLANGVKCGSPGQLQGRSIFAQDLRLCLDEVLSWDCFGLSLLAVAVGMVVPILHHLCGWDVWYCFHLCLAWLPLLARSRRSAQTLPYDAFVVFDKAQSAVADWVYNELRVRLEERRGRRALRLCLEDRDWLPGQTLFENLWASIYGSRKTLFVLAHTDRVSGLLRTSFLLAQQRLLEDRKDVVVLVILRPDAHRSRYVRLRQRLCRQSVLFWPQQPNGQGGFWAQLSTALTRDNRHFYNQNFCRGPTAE", "assay": "TNF-α secretion in RAW 264.7 cells with CpG-ODN", "assay_type": "cell-based"}, "[4]": {"test_system": "NLRP3 inflammasome", "assay": "IL-1β secretion (ELISA) in LPS/ATP-treated mBMDM cells", "assay_type": "cell-based, mouse", "conditions": "TIP1 and LPS/ATP"}, "[5]": {"test_system": "renal tissue of LPS-treated mice", "assay": "Renal apoptosis by TUNEL staining in LPS-treated mice", "assay_type": "in vivo, mouse", "conditions": "TIP1 and LPS, 24 hours", "procedure": "Subsequently, renal tissues were isolated and weighed using an electronic balance (ER-180A, A&D Company, Tokyo, Japan); and then, cut into sagittal planes to make slices. The slices were left overnight in a 10% formalin solution, and then solidified by pouring of paraffin wax. The resultant was made into thin sections of 4 μm using a microtome and fixed. […] The images were analyzed using Zen 2009 software (Carl Zeiss MicroImaging GmbH.). The results are illustrated in FIG. 17."}, "[6]": {"test_system": "liver tissues of C57BL/6J mice", "assay": "Cytokine expression in liver tissue of LPS-treated mice (Western blotting)", "assay_type": "in vivo, mouse", "conditions": "LPS and TIP1, 2 hours"}, "[7]": {"test_system": "NLRP3 inflammasome", "assay": "IL-1β secretion (ELISA) in LPS/ATP-treated THP1 cells", "assay_type": "cell-based, human", "conditions": "TIP1 and LPS/ATP"}}}
{"sequence": "RQIKIWFQNRRMKWKKSHCRVLLI (TIP1)", "values": [{"measurement": "Poly(I:C)-induced generation of IFN-β", "setting": "[1]", "value": "inhibited"}, {"measurement": "MAPK activity (phosphorylation of ERK, JNK, p38)", "setting": "[2]", "value": "MAPK activity is inhibited"}, {"measurement": "NF-κB activity (Iκ-Bα, Western blotting)", "setting": "[2]", "value": "NF-κB activity was inhibited"}, {"measurement": "secretion level of TNF-α", "setting": "[3]", "value": "decreased"}, {"measurement": "secretion level of IL-1β", "setting": "[4]", "value": "decreased"}, {"measurement": "apoptosis in renal tissue (TUNEL-positive cells)", "setting": "[5]", "value": "decreased"}, {"measurement": "LPS-induced expression level of IL-6 in liver tissue", "setting": "[6]", "value": "remarkably decreased"}, {"measurement": "LPS-induced expression level of TNF-α in liver tissue", "setting": "[6]", "value": "remarkably decreased"}, {"measurement": "secretion level of IL-1β", "setting": "[7]", "value": "decreased"}]}
